Experimental data from paper PMC6017844, “4-Thiazolidinone Derivatives as MMP Inhibitors in Tissue Damage: Synthesis, Biological Evaluation and Docking Studies” (Molecules : A Journal of Synthetic Chemistry and Natural …, 2018).

Tests used:
[1] = Oxygen Radical Absorbance Capacity (ORAC) assay; settings: fluorescein 10 nM, AAPH 100 mM, 37 °C, pH 7.0; mean ± SD (n = 3); Trolox = 1 ORAC Units
From the text: Free radicals and ROS are highly reactive molecules that are generated by normal cellular processes. They react with cellular components, damaging DNA, carbohydrates, proteins, and lipids causing cellular and tissue injury. Although organisms have developed complex antioxidant systems to protect themselves from oxidative substances, an excess of ROS production can lead to inflammation and several disease state. ORAC test measures both lipophilic and hydrophilic antioxidant capacity and determines the ability of antioxidants to protect proteins from damage caused by free radicals. ORAC assay has been widely accepted as a standard in vitro to measure the antioxidant activity of synthetic compounds, measuring their capacity to transfer hydrogen atom. The assay measures the loss of fluorescence over time due to peroxyl-radical formation by the breakdown of 2,2′-azobis-2-methyl-propanimidamide dihydrochloride (AAPH). 6-Hydroxy-2,5,7,8-tetramethylchroman-2-carboxylic acid (Trolox), a water soluble vitamin E analog, is a positive control that inhibits the fluorescein decay in a dose dependent manner. The ORAC assay is a kinetic assay measuring fluorescein decay and antioxidant protection over time.
The ORAC assay was performed as previously reported by Cao et al.. The measurements were carried out on a Wallac 1420 Victor^3 96-well plate reader (EG & Wallac, Turku, Finland) with fluorescence filter ([…]). Fluorescein (10 nM) was the fluorescence probe and target molecule for free radical attack from AAPH (100 mM) as peroxyl radical generator. The reaction was conducted at 37 °C at pH 7.0 with Trolox (12.5 μM) as control standard and phosphate buffer as blank. Compounds 13–19 and 22–23 were appropriately diluted with DMSO/buffer (1:10) prior to analysis. The fluorescein fluorescence was recorded every 2 min after addition of AAPH. All measurements were expressed relative to the initial reading. One blank, one standard, and a maximum of 10 samples were analyzed at the same time. Each measure was repeated at least three times. The ORAC value refers to the net protection area under the quenching curve of fluorescein in the presence of an antioxidant. The final results (ORAC value) were calculated and expressed using Trolox equivalents (TE) per gram of extract (TE/g):ORAC value (μM) = K(S sample − S blank)/(S Trolox − S blank)(1) where K is a sample dilution factor, S is the area under the fluorescence decay curve of the sample, Trolox or blank. This area was calculated with Origin®7 (OriginLab Corporation, Northampton, MA, USA).

human recombinant MMP-9 = target: T1, human recombinant MMP-9 (Homo sapiens, UniProt P14780); test: MMP-9 fluorimetric assay; format: biochemical; settings: catalytic domain of MMP-9 10 nM, substrate 350 nM, 25 °C, pH 7; mean ± SD (n = 3); n.a. = not active; read-out: IC50 Value
T1 construct: using 10 nM of proteolytic enzyme (catalytic domains of MMP-9 (Biomol, Inc.)); purchased Biomol, Inc
T1 sequence (P14780 107-444 limits assumed): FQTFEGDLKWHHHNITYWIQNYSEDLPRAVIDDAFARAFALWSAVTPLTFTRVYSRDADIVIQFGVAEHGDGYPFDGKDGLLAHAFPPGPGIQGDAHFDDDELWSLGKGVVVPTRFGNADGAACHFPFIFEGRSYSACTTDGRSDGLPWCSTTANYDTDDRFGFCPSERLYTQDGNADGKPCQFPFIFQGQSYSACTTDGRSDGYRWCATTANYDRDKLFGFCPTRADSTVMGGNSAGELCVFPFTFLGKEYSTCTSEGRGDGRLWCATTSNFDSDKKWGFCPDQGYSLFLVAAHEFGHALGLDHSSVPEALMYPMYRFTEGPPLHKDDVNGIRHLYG
Experimental: The synthesized compounds 13–19, 22 and 23 were tested for their in vitro ability to inhibit human recombinant MMP-9. Table 2 reports the results of this inhibition assay, expressed as IC50 (µM). […] We used as positive control a potent MMPs inhibitor, NNGH (N-isobutyl-N-(4-methoxy-phenylsulfonyl)glycylhydroxamic acid).
The compounds were evaluated for their ability to inhibit the hydrolysis of fluorescence-quenched peptide substrate Mca-Pro-Leu-Gly-Leu-Dpa-Ala-Arg-NH2 (Biomol, Inc., Enzo Life Sciences, Inc., Farmingdale, NY, USA). The MMP-9 assays were performed in 50 mM HEPES buffer containing 5 mM CaCl2, 0.1 mM ZnCl2, 0.05% Brij-35, at pH 7, using 10 nM of proteolytic enzyme (catalytic domains of MMP-9 (Biomol, Inc.) and 350 nM of peptide substrate. The enzyme was incubated at 25 °C with increasing concentration (0.0004, 0.004, 0.04, 0.4, 4, 40, 400 µM) of compounds, and the fluorescence (excitation max 328 nm; emission max 393 nm) was measured for 3 min after the addition of the substrate using a Victor Wallac 1420 Multilabel Counters fluorimeter (Perkin Elmer, Waltham, MA, USA). The fluorescence values of the samples were plotted against the time with a linear regression fit, using the Origin software, version 7 (Origin Lab Corporation, Northampton, MA, USA). The slope of the line value for each inhibitor concentrations was obtained where an increase of the slope corresponds to a decrease of inhibitory activity. Subsequently, the IC50 values were obtained from a non-linear regression procedure (log inhibitor vs. response) with a variables slope of the regression line (Y) and the molar inhibitor concentration (X), using the software Origin®7 (Origin Lab Corporation). The IC50 value was obtained from the equation Y = P1/(1 + X/P2). NNGH (N-Isobutyl-N-(4-methoxyphenylsulfonyl)glycylhydroxamic acid) a potent MMPs inhibitor was used as a positive control.

Row | SMILES | melting point [°C] | ORAC UNITs [1] | IC50 (human recombinant MMP-9) [µM]
1 | CC(C(=O)NN1C(=O)CSC1c1ccccc1)c1nsc2ccccc12 (centres unmarked) (hydrate or solvate) [Compound 13, 2-(1,2-Benzothiazol-3-yl)-N-(4-oxo-2-phenyl-1,3-thiazolidin-3-yl)propanamide] | 239 to 240 |  | 
2 | COc1ccc(C2SCC(=O)N2NC(=O)C(C)c2nsc3ccccc23)cc1 (centres unmarked) (hydrate or solvate) [Compound 15, 2-(1,2-Benzothiazol-3-yl)-N-[2-(4-methoxyphenyl)-4-oxo-1,3-thiazolidin-3-yl]propanamide] | 170 |  | 
3 | CC(C(=O)NN1C(=O)CSC1c1ccc(F)cc1)c1nsc2ccccc12 (centres unmarked) (hydrate or solvate) [Compound 16, 2-(1,2-Benzothiazol-3-yl)-N-[2-(4-fluorophenyl)-4-oxo-1,3-thiazolidin-3-yl]propanamide] | 185 to 186 |  | 
4 | CC(C(=O)NN1C(=O)CSC1c1ccc(C(F)(F)F)cc1)c1nsc2ccccc12 (centres unmarked) (hydrate or solvate) [Compound 17, 2-(1,2-Benzothiazol-3-yl)-N-{4-oxo-2-[4-(trifluoromethyl)phenyl]-1,3-thiazolidin-3-yl}propanamide] | 145 to 147 |  | 
5 | CC(C(=O)NN1C(=O)CSC1c1ccc(Cl)cc1)c1nsc2ccccc12 (centres unmarked) (hydrate or solvate) [Compound 18, 2-(1,2-Benzothiazol-3-yl)-N-[2-(4-chlorophenyl)-4-oxo-1,3-thiazolidin-3-yl]propanamide] | 187 to 188 |  | 
6 | CC(C(=O)NN1C(=O)CSC1c1ccc([N+](=O)[O-])cc1)c1nsc2ccccc12 (centres unmarked) (hydrate or solvate) [Compound 19, 2-(1,2-Benzothiazol-3-yl)-N-[2-(4-nitrophenyl)-4-oxo-1,3-thiazolidin-3-yl]propanamide] | 208 to 209 |  | 
7 | CC(C(=O)NN1C(=O)CSC1c1ccccc1)c1nsc2ccccc12 (centres unmarked) [Compound 13, 2-(1,2-Benzothiazol-3-yl)-N-(4-oxo-2-phenyl-1,3-thiazolidin-3-yl)propanamide] |  | 0.61 ± 0.14 ORAC unit (μmol of Trolox equi | 7.99 ± 0.65
8 | Cc1ccc(C2SCC(=O)N2NC(=O)C(C)c2nsc3ccccc23)cc1 (centres unmarked) [Compound 14, 2-(1,2-Benzothiazol-3-yl)-N-[2-(4-methylphenyl)-4-oxo-1,3-thiazolidin-3-yl]propanamide] |  | 0.40 ± 0.06 ORAC unit (μmol of Trolox equi | 9.01 ± 0.45
9 | COc1ccc(C2SCC(=O)N2NC(=O)C(C)c2nsc3ccccc23)cc1 (centres unmarked) [Compound 15, 2-(1,2-Benzothiazol-3-yl)-N-[2-(4-methoxyphenyl)-4-oxo-1,3-thiazolidin-3-yl]propanamide] |  | 0.66 ± 0.12 ORAC unit (μmol of Trolox equi | 6.82 ± 0.95
10 | CC(C(=O)NN1C(=O)CSC1c1ccc(F)cc1)c1nsc2ccccc12 (centres unmarked) [Compound 16, 2-(1,2-Benzothiazol-3-yl)-N-[2-(4-fluorophenyl)-4-oxo-1,3-thiazolidin-3-yl]propanamide] |  | 0.46 ± 0.20 ORAC unit (μmol of Trolox equi | 17.2 ± 1.92
11 | CC(C(=O)NN1C(=O)CSC1c1ccc(C(F)(F)F)cc1)c1nsc2ccccc12 (centres unmarked) [Compound 17, 2-(1,2-Benzothiazol-3-yl)-N-{4-oxo-2-[4-(trifluoromethyl)phenyl]-1,3-thiazolidin-3-yl}propanamide] |  | 0.27 ± 0.06 ORAC unit (μmol of Trolox equi | 
12 | CC(C(=O)NN1C(=O)CSC1c1ccc(Cl)cc1)c1nsc2ccccc12 (centres unmarked) [Compound 18, 2-(1,2-Benzothiazol-3-yl)-N-[2-(4-chlorophenyl)-4-oxo-1,3-thiazolidin-3-yl]propanamide] |  | 0.47 ± 0.23 ORAC unit (μmol of Trolox equi | 16.1 ± 1.23
13 | CC(C(=O)NN1C(=O)CSC1c1ccc([N+](=O)[O-])cc1)c1nsc2ccccc12 (centres unmarked) [Compound 19, 2-(1,2-Benzothiazol-3-yl)-N-[2-(4-nitrophenyl)-4-oxo-1,3-thiazolidin-3-yl]propanamide] |  | 0.40 ± 0.17 ORAC unit (μmol of Trolox equi | 22.1 ± 1.42
14 | COc1ccc(S(=O)(=O)N(CC(=O)NO)CC(C)C)cc1 [NNGH, N-isobutyl-N-(4-methoxy-phenylsulfonyl)glycylhydroxamic acid, reference compound] |  |  | 0.0065 ± 0.00025
